“Also recorded” adds a separate entry of the source.

The subject of assay [1] is formation of angiotensin III from [3H]AngII in hypothalamus. In words: In vivo metabolism of tritiated AngII/AngIII in murine hypothalamus after i.c.v. injection. Also on record: species or system mouse. The following applies: mice. As for the experimental part:
Male Swiss mice (available from the IFFA Credo Institute) weighing 18 to 20 grams are maintained under artificial light (12 hours in bright phase - 12 hours in half-light) and have food and water available ad libitum. The experiments are carried out between 9 o'clock and 11 o'clock in the morning. The drugs are administered into the lateral ventricle by the intracerebroventricular route (i.c.v) at an amount of 5 μl per mouse according to the method of Haley and McCormick (Br. J. Pharmacol. 12, 12-15).
For each experiment, six to eight mice are used for each of the conditions. A mixture of 2×10^6 cpm of [^3H]Ang II and 30 μg of unlabelled Ang II is administered in a 5 μl volume, alone or together with EC33 (30 μg). The inhibitors are dissolved in an isotonic saline solution adjusted to a pH of 7.4 with 0.01 M NaOH solution. At various times after the injection, the mice are decapitated, their brains are removed and their hypothalami are dissected on ice and homogenized by sonication (ultrasons, Anemasse, France) in 10 volumes of a 0.1 M HCl solution cooled in ice. […]
The respective amounts of labelled angiotensins II and III present in the hypothalamus are determined according to the protocol of Ledwith et al. (Anal. Biochem. 213, 349-355). […] The F1 and F2 fractions are then analysed by HPLC to determine their respective content of tritiated angiotensin II and tritiated angiotensin III.
With the aim of an HPLC analysis, the F1 and F2 fractions are initially concentrated by extraction on a C18 Sep-pak® Cartridges device (Waters). […] After elution on Sep-pak®, the respective F1 and F2 fractions are freeze-dried, dissolved in 0.2 ml of a 0.01 M acetic acid solution, with 20 ng of angiotensin II and of angiotensin III as internal standard, and analysed by HPLC.
The HPLC analysis is carried out using an H Hypersil ODS®-3 μm reverse phase column (Shandon, Pittsburgh) heated to 45° C., then with an isocratic elution at a flow rate of 0.6 ml per minute. […] Their radioactivity content is estimated with a beta counter. […]

In assay [2] the test system is arterial pressure of WKY normotensive and SHR hypertensive rats. In words: Mean arterial pressure in anaesthetized WKY and SHR rats after i.c.v. injection. The following applies: for maximum hypotensive effect (change in arterial pressure): 100 μg i.c.v.; for antagonist effect on PC18-induced increase in arterial pressure: Losartan 10 μg pretreatment, PC18 60 μg. In kind it is in vivo, rat. The text has this: The rats used are male Sprague-Dawley rats weighing 200 to 250 grams; some of them are 11-week-old rats (SHR). Wistar Kyoto normotensive rats are also used as controls. The animals are kept for one week with alternating 12-hour periods of light and half-light, and have water and food available ad libitum. For each experiment, the SHR and WKY rats are weighed, and their arterial pressure and cardiac rhythm are continuously recorded via an invasive route after inserting a catheter (PE 50) into the femoral artery. The catheter is linked to a pressure sensor (COBE) and connected to a signal processor which is linked to an amplifier. The computer system comprises a MacLab interface system and application software (Chart and Scope) which allows data acquisition and calculation through a Macintosh computer.
These experiments are carried out in Wistar Kyoto (WKY) normotensive rats or spontaneously hypertensive rats (SHR 12 weeks old).
The animals are anaesthetized with Inactin (5-ethyl-2-(1′-methylpropyl)-2-thiobarbita), this being an anaesthetic which is used regularly in renal or cardiovascular physiology experiments. Its properties are to cause a very slight drop in arterial pressure, which is visible only in SHR rats, and especially to allow a stable basal arterial pressure to be maintained throughout the experiment.
The mean arterial pressure (systolic+diastolic) is measured continuously, via an invasive route, after catheterizing the femoral artery. The peptides or the inhibitors, are injected via the intracerebroventricular (i.c.v.) route with the aid of a cannula positioned in the lateral ventricle under stereotaxy (Stereotaxic Atlas; G. Paxinos and C. Watson, Academic Press, 1986).
The experiments are carried out on groups of 4 to 20 individually analysed animals. The results on batches of control animals and treated animals were compared with the aid of an analysis of variance (ANOVA), followed by an unpaired Student's test.
An injection of angiotensin II is carried out combined, where appropriate, with a consecutive injection of EC33.
In accordance with the protocol described in Example 3, AngIII (10 ng) in the presence of 60 μg of PC18 is injected into SHR rats. As a control test, an injection of PC18 alone is carried out.

The test system of assay [3] is arterial pressure of conscious SHR rats. In words: Arterial pressure in conscious SHR rats after i.c.v. or i.v. injection. In kind it is in vivo, rat. As for the experimental part:
These experiments are carried out in a 12-week-old SHR rats (300-350 g). During the operation, the animals are anaesthetized for a limited time (3 hours) with sodium pentobarbital (50 mg/kg intraperitoneal, Laboratoire Sentravet, Plancoët, France) The experiments are carried out a minimum of 24 hours after the operation.
The injections are carried out with the aid of a cannula positioned in the lateral ventricle under stereotaxy, and the arterial pressure is measured continuously, via an invasive route, after catheterizing the femoral artery. The catheter is exteriorized at the level of the animal's neck, and is linked to a fixing system which allows the rat to move around freely in its cage.
A first catheter is positioned in the femoral vein in order to carry out the injections, a second catheter is introduced into the femoral artery in order to be able to measure arterial pressure continuously. Both catheters are then exteriorized as indicated above.

A further assay relates to aminopeptidase A (APA). In words: Measurement of APA activity in vitro (GluβNa hydrolysis, purified APA). The following applies: APN versus APA.

Text for aminopeptidase A (APA): In vitro, in the presence of calcium ions, APA hydrolyses α-L-glutamyl-β-naphthylamide (gluβNa) to glutamate and β-naphthylamine (βNa). A diazotation reaction in acid medium makes it possible to reveal the β-naphthylamine by formation of a violet-coloured complex: spectrophotometric measurement then makes it possible to know the amount of complex formed and, by reference to a standard curve produced with increasing concentrations of β-naphthylamine, to deduce therefrom the enzymatic activity of the sample.
The GluβNa substrate and the β-naphthylamine (Bachem) are dissolved in DMSO (dimethyl sulphoxide) and 0.1 N HCl respectively, and conserved at −20° C. at a concentration of 10^−2 M. The diazotation reaction is carried out in the presence of sodium nitrite (87 mM), ammonium sulphamate (130 mM) and N-(1-naphthyl)-ethylenediamine dihydrochloride (23 mM).
The reaction takes place at pH 7.4 in 50 mM tris-HCl buffer, in the presence of calcium (4 mM CaCl2); the sample to be assayed is incubated at 37° C. in the presence of substrate (200 μM GluβNa) and in the presence or absence of various concentrations of the inhibitor to be tested, in a final volume of 100 μl. The reaction is stopped by adding 10 μl of 3N HCl. A standard curve of β-naphthylamine in acid medium (add 10 μl of 0.1 N HCl) is produced in parallel.
The following are added to each well: […]

For `N[C@H](CS)CCS(=O)(=O)[O-].[Na+]` [EC33, sodium (S)-3-amino-4-mercaptobutylsulphonate], in assay [1] (EC33 30 μg i.c.v.), the “formation of tritiated AngIII in hypothalamus” value is given as “immediately blocked; also recorded: totally blocks”. Moreover, the “half-life of [3H]AngII in hypothalamus” value in assay [1] (EC33 30 μg i.c.v. with [3H]AngII and 30 μg AngII) is 5.38 ± 0.21 min. Also, the “[3H]AngII content in hypothalamus, times the content of the control test” value in assay [1] (EC33 30 μg i.c.v., between 0.5 and 7 minutes) is given as “approximately 11”. Also, the “effect on the AngII-induced increase in arterial pressure” value in assay [2] (AngII 10 ng with EC33 100 μg i.c.v.) is reported as “completely eliminated”. Further, the “modification of the effect on pressure of AngIII” value in assay [2] (AngIII 30 ng with EC33 i.c.v.) is “ineffectiveness”. In addition, the “maximum hypotensive effect (change in arterial pressure)” value in assay [2] (hypertensive (SHR) anaesthetized rats) is −28 mmHg. Further, in assay [2] (normotensive (WKY) anaesthetized rats), the “maximum hypotensive effect (change in arterial pressure)” value is recorded as −22 mmHg. In addition, in assay [3] (100 μg i.c.v.), the “decrease in arterial pressure” value is given as −26 mmHg and the “duration of hypotensive effect” value amounted to 40 min. In addition, the hypotensive effect result in assay [3] (45 mg/kg i.v.) is on record as “does not induce a significant hypotensive effect”.
`CCCCc1nc(Cl)c(CO)n1Cc1ccc(-c2ccccc2-c2nn[nH]n2)cc1` [Losartan]: the “antagonist effect on PC18-induced increase in arterial pressure” value in assay [2] (hypertensive rats) was “about 52%”; in assay [2] (normotensive rats) it was “about 85%”.
`CSCC[C@H](N)CS` [PC18, methioninethiol]: the “times less active on APA than on APN” value in the assay on aminopeptidase A (APA) came to 1000. Further, the “effect on the pressure effect of AngIII” value in assay [2] (AngIII 10 ng with PC18 60 μg i.c.v., SHR rats) was “potentiation”. For the same compound, the “increase in arterial pressure” value in assay [2] (PC18 60 μg i.c.v., normotensive rats) is listed as “+10 mmHg”. The “duration of pressure effect” value in assay [2] (PC18 alone 60 μg i.c.v., SHR rats) is “approximately 12 minutes”.
Turning to “angiotensin II (DRVYIHPF; Angiotensin-2; UniProt P01019 25-32, looked up) [ANGII, angiotensin II peptide available from Amersham or Sigma]”, the “maximum magnitude of increase in arterial pressure” value in assay [2] (AngII 10 ng i.c.v., WKY and SHR rats) is “approximately 10 mmHg”.

The record behind these values is patent publication US6340708B1, “Pharmaceutical composition comprising at least one aminopeptidase A inhibitor” (Institut National de la Sante et de la Recherche Medicale …, priority 1998, dated 2002).
